Test results from paper PMC4291083, “Ex Vivo Characterization of a Novel Iodine-123-Labelled Aminomethylchroman as a Potential Agonist Ligand for SPECT Imaging of Dopamine D2/3 Receptors” (International Journal of Molecular Imaging, 2014).

Tested on: D2/3 receptors
Assay: Blocking studies using ex vivo storage phosphor imaging (haloperidol)
Type: in vivo
Details: 2 h p.i., rats
Method: To determine whether [^123I]-1 binds selectively to D2/3 receptors in vivo, in the following experiments 5 rats received an i.v. injection of the dopamine receptor blocker haloperidol (1 mg/kg) 5 min prior to the injection with [^123I]-1 (approximately 37 MBq). A control group (n = 5) was injected with 0.4 mL buffer 5 min prior to the injection with the radiopharmaceutical. Two hours after the injection of [^123I]-1 (this time point was based on the results of the classic biodistribution study; see Results) the rats were sacrificed by bleeding through heart puncture under O2/CO2 anaesthesia. The brains were quickly removed and immediately frozen on dry ice. Then the frozen brain was sliced horizontally in 50 μm thick slices. Storage phosphor imaging was done as previously described. In contrast to previous studies, we used a Typhoon FLA 7000 Phosphor imager (GE Healthcare Life Sciences, Uppsala, Sweden) and Hypercassette Amersham Biosciences imaging plates which were scanned at 25 μm pixel size. In this blocking experiment, storage phosphor imaging was used because this offers the opportunity to look into binding in ventral as well as dorsal parts of the striatum. In ventral parts, the expression of dopamine D3 receptors is higher than in more dorsal parts.

With `Oc1ccc2c(c1)O[C@@H](CNCc1ccc([123I])cc1)CC2` [[^123I]-1] the specific striatal binding (haloperidol 1 mg/kg i.v. 5 min prior vs control) was “no specific striatal binding was observed”, the “specific binding in other brain areas including the globus pallidus” value was “no specific binding” and the “uptake in white matter” value was “high uptake in white matter”.
